Test results from patent publication US10526316B2, “Quinoxaline and pyridopyrazine derivatives as PI3Kβ inhibitors” (Janssen Pharmaceutica NV, priority 2015, dated 2020).
Where a name gives a salt, the structure may show the parent alone.

What was measured:
PI3Kβ = target: T1, PI3Kβ (Homo sapiens, UniProt P42338); experiment: Enzyme binding assay (KINOMEscan, DiscoveRx); conditions: PIK3Cβ_h, read-out: Kd PIK3Cβ_h
T1 construct: purchased DiscoveRx Corporation, San Diego (contract service, KINOMEscan)
In short: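 Values are Kd in nM, the binding constant of each inhibitor for the kinase, obtained from a KINOMEscan enzyme binding assay.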

kinase enzymes [1] = target: T2, kinase enzymes (Homo sapiens, UniProt P48736); experiment: Enzyme binding assay (KINOMEscan, DiscoveRx), further kinases of Table A; conditions: PIK3Cγ_h
T2 construct: purchased DiscoveRx Corporation, San Diego (contract service, KINOMEscan)
In short: (§1)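 Affinity for each kinase was determined by KINOMEscan profiling.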

kinase enzymes [2] = target: T3, kinase enzymes (Homo sapiens, UniProt P42345); experiment: as above; conditions: MTOR_h
T3 construct: purchased DiscoveRx Corporation, San Diego (contract service, KINOMEscan)
In short: as §1

kinase enzymes [3] = target: T4, kinase enzymes (Homo sapiens, UniProt P42336); experiment: as above; conditions: PIK3Cα_h
T4 construct: purchased DiscoveRx Corporation, San Diego (contract service, KINOMEscan)
In short: as §1

PI3Kδ = target: T5, PI3Kδ (Homo sapiens, UniProt O00329); experiment: Enzyme binding assay (KINOMEscan, DiscoveRx); conditions: PIK3Cδ_h
T5 construct: purchased DiscoveRx Corporation, San Diego (contract service, KINOMEscan)
T5 sequence (O00329 1-1044): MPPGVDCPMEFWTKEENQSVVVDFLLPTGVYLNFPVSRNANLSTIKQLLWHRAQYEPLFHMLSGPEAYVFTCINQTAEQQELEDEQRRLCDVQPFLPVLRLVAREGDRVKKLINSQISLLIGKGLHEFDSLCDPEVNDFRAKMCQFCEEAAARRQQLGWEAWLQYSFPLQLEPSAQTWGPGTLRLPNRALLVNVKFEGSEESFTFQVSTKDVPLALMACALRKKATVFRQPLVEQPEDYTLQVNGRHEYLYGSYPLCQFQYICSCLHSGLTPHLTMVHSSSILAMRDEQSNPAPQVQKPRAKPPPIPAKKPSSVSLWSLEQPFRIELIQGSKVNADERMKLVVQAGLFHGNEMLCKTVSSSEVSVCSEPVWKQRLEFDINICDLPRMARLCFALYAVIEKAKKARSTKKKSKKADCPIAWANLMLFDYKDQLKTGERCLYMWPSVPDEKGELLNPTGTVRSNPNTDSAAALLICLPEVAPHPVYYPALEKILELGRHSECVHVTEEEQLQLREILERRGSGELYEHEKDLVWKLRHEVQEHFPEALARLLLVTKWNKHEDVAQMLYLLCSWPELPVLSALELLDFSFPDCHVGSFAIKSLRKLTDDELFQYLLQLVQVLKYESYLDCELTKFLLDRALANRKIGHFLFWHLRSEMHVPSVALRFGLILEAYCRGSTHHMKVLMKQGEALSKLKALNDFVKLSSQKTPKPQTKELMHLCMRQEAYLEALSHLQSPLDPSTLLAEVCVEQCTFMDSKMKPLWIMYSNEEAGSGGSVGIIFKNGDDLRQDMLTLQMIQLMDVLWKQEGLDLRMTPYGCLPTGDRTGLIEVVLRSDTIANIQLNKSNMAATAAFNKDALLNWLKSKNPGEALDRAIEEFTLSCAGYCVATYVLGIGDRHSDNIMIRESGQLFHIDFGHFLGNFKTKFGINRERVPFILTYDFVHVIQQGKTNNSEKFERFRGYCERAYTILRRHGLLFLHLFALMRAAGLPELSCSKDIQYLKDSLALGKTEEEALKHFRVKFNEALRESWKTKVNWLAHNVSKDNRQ
In short: as §1

[4] = system: Akt phosphorylated at Ser473 in PC-3 cells; experiment: Cellular assay: phosphorylation of Akt at Ser473 in PC-3 cells (MSD ELISA); format: cell-based; conditions: Homo sapiens, PC-3, 1 h, PC-3 cells, 60 min compound incubation, MSD ELISA; read-out: IC50 pAkt_S473
In short: (§2)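 PC-3 cells were exposed to compound or 0.3% DMSO for 60 min at 37° C, 5% CO2, then lysed in ice-cold buffer. Phospho-Akt was captured on site-specific antibody-coated plates and detected with Sulfo-tag anti-total Akt by electrochemiluminescence. IC50 values came from five-concentration response curves.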

[5] = system: Akt phosphorylated at Thr308 in PC-3 cells; experiment: Cellular assay: phosphorylation of Akt at Thr308 in PC-3 cells (MSD ELISA); format: cell-based; conditions: Homo sapiens, PC-3, 1 h, PC-3 cells, 60 min compound incubation, MSD ELISA; read-out: IC50 pAkt_Thr308
In short: as §2

T4 sequence (P42336 whole entry): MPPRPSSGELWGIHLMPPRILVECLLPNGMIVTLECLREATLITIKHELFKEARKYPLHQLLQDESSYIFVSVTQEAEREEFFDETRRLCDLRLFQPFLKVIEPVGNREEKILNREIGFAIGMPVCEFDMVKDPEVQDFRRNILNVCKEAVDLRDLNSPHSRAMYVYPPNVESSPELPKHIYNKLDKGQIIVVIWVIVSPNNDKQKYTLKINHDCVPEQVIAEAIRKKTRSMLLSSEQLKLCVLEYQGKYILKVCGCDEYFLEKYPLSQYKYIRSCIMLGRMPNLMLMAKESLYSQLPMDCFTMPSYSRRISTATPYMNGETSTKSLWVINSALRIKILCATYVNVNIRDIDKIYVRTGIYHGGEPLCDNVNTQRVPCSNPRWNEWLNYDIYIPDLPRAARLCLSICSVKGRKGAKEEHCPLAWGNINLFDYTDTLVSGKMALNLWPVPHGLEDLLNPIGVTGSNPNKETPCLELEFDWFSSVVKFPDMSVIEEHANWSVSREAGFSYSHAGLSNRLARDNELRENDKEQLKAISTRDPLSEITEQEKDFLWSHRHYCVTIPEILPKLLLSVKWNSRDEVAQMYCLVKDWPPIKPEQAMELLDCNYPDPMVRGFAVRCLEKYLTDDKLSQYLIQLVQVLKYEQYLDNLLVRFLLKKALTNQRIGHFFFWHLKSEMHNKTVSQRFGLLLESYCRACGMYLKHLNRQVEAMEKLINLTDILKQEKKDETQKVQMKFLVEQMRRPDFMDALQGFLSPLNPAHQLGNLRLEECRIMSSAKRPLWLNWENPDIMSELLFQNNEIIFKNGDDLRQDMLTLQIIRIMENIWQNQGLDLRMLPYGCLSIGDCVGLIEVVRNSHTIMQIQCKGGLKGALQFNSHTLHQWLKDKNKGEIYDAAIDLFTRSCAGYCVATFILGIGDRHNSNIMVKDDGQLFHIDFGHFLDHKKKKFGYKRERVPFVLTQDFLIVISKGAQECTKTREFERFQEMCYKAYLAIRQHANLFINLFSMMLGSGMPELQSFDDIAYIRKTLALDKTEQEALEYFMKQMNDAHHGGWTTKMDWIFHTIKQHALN
T2 sequence (P48736 whole entry): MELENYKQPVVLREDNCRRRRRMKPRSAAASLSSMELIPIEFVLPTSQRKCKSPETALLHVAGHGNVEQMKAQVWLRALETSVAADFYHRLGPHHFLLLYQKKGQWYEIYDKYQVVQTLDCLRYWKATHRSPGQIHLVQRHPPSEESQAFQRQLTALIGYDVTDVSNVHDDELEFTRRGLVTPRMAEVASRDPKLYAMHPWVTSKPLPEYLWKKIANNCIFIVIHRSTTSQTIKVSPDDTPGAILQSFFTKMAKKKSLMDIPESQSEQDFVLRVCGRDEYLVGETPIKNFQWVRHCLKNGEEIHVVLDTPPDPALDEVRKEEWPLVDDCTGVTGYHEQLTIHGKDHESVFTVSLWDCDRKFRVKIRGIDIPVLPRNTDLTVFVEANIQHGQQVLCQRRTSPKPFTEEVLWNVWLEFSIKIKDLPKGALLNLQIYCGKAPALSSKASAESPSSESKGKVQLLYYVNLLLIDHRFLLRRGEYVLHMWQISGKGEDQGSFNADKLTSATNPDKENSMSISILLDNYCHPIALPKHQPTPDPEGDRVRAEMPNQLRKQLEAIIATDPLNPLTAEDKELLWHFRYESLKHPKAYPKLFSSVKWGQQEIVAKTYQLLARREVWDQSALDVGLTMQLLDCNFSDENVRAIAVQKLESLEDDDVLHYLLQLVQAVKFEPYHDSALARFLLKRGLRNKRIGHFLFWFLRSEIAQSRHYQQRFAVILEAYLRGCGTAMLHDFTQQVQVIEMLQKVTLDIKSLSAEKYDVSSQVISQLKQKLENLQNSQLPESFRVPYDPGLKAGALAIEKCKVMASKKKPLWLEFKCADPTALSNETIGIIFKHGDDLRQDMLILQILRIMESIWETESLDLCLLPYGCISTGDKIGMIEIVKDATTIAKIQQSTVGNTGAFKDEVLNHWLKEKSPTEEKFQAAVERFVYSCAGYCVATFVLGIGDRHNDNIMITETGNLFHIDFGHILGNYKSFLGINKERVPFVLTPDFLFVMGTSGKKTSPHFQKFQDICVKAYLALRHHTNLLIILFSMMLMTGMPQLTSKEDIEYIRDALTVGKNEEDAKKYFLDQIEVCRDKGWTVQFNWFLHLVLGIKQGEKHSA
T1 sequence (P42338 whole entry): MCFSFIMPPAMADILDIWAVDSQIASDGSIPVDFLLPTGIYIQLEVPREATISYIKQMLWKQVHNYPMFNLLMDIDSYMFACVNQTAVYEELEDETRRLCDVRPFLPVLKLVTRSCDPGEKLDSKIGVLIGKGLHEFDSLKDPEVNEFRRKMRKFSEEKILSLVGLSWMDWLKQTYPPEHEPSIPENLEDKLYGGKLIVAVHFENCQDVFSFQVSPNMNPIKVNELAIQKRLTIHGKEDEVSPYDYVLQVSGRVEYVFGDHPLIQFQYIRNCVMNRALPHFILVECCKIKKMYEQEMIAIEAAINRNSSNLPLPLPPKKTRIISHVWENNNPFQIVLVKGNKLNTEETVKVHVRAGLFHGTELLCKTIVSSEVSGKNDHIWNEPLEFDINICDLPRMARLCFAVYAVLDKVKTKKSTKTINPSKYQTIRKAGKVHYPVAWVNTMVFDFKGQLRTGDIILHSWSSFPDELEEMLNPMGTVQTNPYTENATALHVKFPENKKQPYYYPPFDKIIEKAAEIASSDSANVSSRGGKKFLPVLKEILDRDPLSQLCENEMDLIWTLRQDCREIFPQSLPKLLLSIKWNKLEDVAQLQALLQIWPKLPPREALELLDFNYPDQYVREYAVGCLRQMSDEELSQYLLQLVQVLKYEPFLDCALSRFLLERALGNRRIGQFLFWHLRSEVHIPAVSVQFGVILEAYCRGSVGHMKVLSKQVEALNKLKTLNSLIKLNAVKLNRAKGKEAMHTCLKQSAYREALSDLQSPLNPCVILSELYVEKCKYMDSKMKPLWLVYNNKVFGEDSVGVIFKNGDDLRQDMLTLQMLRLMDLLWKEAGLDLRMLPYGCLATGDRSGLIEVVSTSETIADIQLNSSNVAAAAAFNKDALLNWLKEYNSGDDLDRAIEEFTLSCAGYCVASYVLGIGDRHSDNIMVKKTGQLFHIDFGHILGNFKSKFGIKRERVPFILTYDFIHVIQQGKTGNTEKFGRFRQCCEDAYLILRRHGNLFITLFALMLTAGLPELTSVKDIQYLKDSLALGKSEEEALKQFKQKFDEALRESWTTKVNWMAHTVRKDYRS

| SMILES | melting point [°C] | Kd (PI3Kβ) [µM] | Kd (kinase enzymes [1]) [µM] | Kd (kinase enzymes [2]) [µM] | Kd (kinase enzymes [3]) [µM] | Kd (PI3Kδ) [µM] | IC50 [4] [µM] | IC50 [5] [µM] |
| --- | --- | --- | --- | --- | --- | --- | --- | --- |
| C[C@@H](Nc1cc(F)cc(F)c1)c1cc(C(=O)NCCN(C)C)cc2ncc(N3CCOCC3)nc12 (as salt: HCl) [Compound 184a] | 80 |  |  |  |  |  |  |  |
| C[C@@H](Nc1cc(F)cc(F)c1)c1cc(C(=O)NCCN(C)C)cc2ncc(N3CCOCC3)nc12 (as salt: sulfonic acid salt) [Compound 184c] | 74 |  |  |  |  |  |  |  |
| C[C@@H](Nc1cc(F)cc(F)c1)c1cc(C(=O)NCCN(C)C)cc2ncc(N3CCOCC3)nc12 (as salt: sulfuric acid salt) [Compound 184b] | 270 |  |  |  |  |  |  |  |
| CC(Oc1ccc(F)c(F)c1)c1cc(C(=O)N2CCN3CCC[C@@H]3C2)cc2ncc(N3CCOCC3)nc12 (mixture of isomers) [Compound 375] | 80 | 0.117 | > 30.2 | > 30.2 | 18.6 | 2.19 |  |  |
| CC(Nc1cc(F)cc(F)c1)c1cc(CNCC(F)(F)F)cc2ncc(N3CCOCC3)nc12 (single isomer, unassigned) (as salt: HCl) (hydrate or solvate) [Compound 163] | 239 |  |  |  |  |  |  |  |
| CC(Nc1cc(F)cc(F)c1)c1cc(CN2CCO[C@@H](CO)C2)cc2ncc(N3CCOCC3)nc12 (single isomer, unassigned) (as salt: HCl) [Compound 193] | 80 |  |  |  |  |  |  |  |
| CC(Nc1cc(F)cc(F)c1)c1cc(CN2CCO[C@H](CO)C2)cc2ncc(N3CCOCC3)nc12 (single isomer, unassigned) (as salt: HCl) [Compound 194] | 80 |  |  |  |  |  |  |  |
| COC1CN(Cc2cc(C(C)Nc3cc(F)cc(F)c3)c3nc(N4CCOCC4)cnc3c2)CC1OC (single isomer, unassigned) (as salt: hydrochloride) [Compound 205] | 80 |  |  |  |  |  |  |  |
| CC(Oc1cc(F)cc(F)c1)c1cc(C(=O)NCCO)cc2ncc(N3CCOCC3)nc12 (single isomer, unassigned) [Compound 200] | 115 | 2.4 | > 30.2 | > 30.2 | > 30.2 | > 30.2 |  |  |
| CC(Nc1cc(F)cc(F)c1)c1cc(C(=O)NC[C@H](C)O)cc2ncc(N3CCOCC3)nc12 (single isomer, unassigned) [Compound 246b] | 75 | 16.6 | 6.17 | > 30.2 | > 30.2 | > 30.2 |  |  |
| COC(=O)c1cc(C(C)Nc2cccc(F)c2)c2nc(N3CCOCC3)cnc2c1 (single isomer, unassigned) [Compound 262a] | 199.7 | 1.78 | > 30.2 | > 30.2 | > 30.2 | 24.5 |  |  |
| COC(=O)c1cc(C(C)Nc2cccc(F)c2)c2nc(N3CCOCC3)cnc2c1 (single isomer, unassigned) [Compound 262b] | 199.5 | 11.5 | > 30.2 | > 30.2 | > 30.2 | > 30.2 |  |  |
| CC(C)NCCNC(=O)c1cc(C(C)Nc2cc(F)c(F)c(F)c2)c2nc(N3CCOCC3)cnc2c1 (single isomer, unassigned) [Compound 283b] | 170 | 1.38 | 29.5 | > 30.2 | > 30.2 | 18.2 |  |  |
| CC1CN(C(=O)c2cc(C3CCCN3c3cc(F)cc(F)c3)c3nc(N4CCOCC4)cnc3c2)CC(C)N1 (centres unmarked) [Compound 39] | 80 |  |  |  |  |  |  |  |
| COC(=O)c1cc(C(C)Nc2cc(F)c(F)c(F)c2)c2nc(N3CCOCC3)cnc2c1 (centres unmarked) [Compound 266] | 220 |  |  |  |  |  |  |  |
| Cc1c(F)cccc1CN(C)c1cc(C(=O)N(C)[C@@H]2CCNC2)cc2ncc(N3CCOCC3)nc12 [Compound 359] |  | 0.043 | 28.8 | 6.46 | 11.3 | 0.796 | > 0.513 | > 0.513 |
| CC(C)N1CCCN(C(=O)c2cc(NCc3cc(F)cc(F)c3)c3nc(N4CCOCC4)cnc3c2)CC1 [Compound 360] |  | 0.042 | 26.9 | > 30.2 | 6.76 | 11.7 | > 0.513 | > 0.513 |
| CNCCN(C)C(=O)c1cc(N(C)Cc2cccc(F)c2C)c2nc(N3CCOCC3)cnc2c1 [Compound 362] |  | 0.002 | 9.77 | 19.1 | 2.95 | 0.49 | 0.229 | 0.263 |
| CN(C(=O)c1cc(NCc2cc(F)cc(F)c2)c2nc(N3CCOCC3)cnc2c1)[C@H]1CCNC1 [Compound 368] |  | 0.007 | > 30.2 | > 30.2 | 5.37 | 1.41 | 0.12 | ~0.023 |
| CC(C)N1CCCN(C(=O)c2cc(N(C)Cc3cc(F)cc(F)c3)c3nc(N4CCOCC4)cnc3c2)CC1 [Compound 373] |  | 0.158 | > 30.2 | > 30.2 | > 30.2 | 5.25 | > 0.513 | > 0.513 |
| CNCCN(C)C(=O)c1cc(C(C)Oc2cc(F)c(F)c(F)c2)c2nc(N3CCOCC3)cnc2c1 (centres unmarked) [Compound 379a] |  | 0.002 | > 30.2 | > 30.2 | 9.77 | 0.813 | ~0.029 | 0.022 |
| Cc1c(F)cccc1NCc1cc(C(=O)NCCO)cc2ncc(N3CCOCC3)nc12 [Compound 381] |  | 0.026 | 8.32 | > 30.2 | 3.55 | 3.8 | 0.209 | 0.117 |
| CN(C)CCNC(=O)c1cc(NCc2cc(F)cc(F)c2)c2nc(N3CCOCC3)cnc2c1 [Compound 384] |  | 0.001 | 15.8 | 20 | 2.69 | 0.575 | 0.02 | 0.007 |
| Cc1c(F)cccc1CNc1cc(C(=O)N(C)CCNC(C)C)cc2ncc(N3CCOCC3)nc12 [Compound 385] |  | 0.001 | 6.17 | 16.6 | 0.933 | 0.347 | 0.032 | 0.02 |
| Cc1c(F)cccc1CN(C)c1cc(C(=O)N(C)CCNC(C)C)cc2ncc(N3CCOCC3)nc12 [Compound 386] |  | 0.015 | 14.8 | 24.5 | 3.24 | 0.692 | > 0.513 | > 0.513 |
| CC(C)NCCN(C)C(=O)c1cc(NCc2cc(F)cc(F)c2)c2nc(N3CCOCC3)cnc2c1 [Compound 389] |  | 0.005 | > 30.2 | > 30.2 | 3.16 | 2.19 | 0.039 | 0.028 |
| O=C(NCCO)c1cc(N2CCC2c2ccc(F)cc2)c2nc(N3CCOCC3)cnc2c1 (centres unmarked) [Compound 391] |  | 0.251 | 12 | 24.5 | 5.49 | 3.39 | > 0.513 | > 0.513 |
| CC1CN(c2cnc3cc(C(=O)N(C)C)cc(N4CCCC4c4cc(F)cc(F)c4)c3n2)CCO1 (centres unmarked) [Compound 396] |  | 0.12 | 20.9 | > 30.2 | 7.76 | 2.04 | > 0.513 | > 0.513 |
| CN(C)C(=O)c1cc(N2CCC[C@@H]2c2cc(F)cc(F)c2)c2nc(C3=CCOCC3)cnc2c1 [Compound 398] |  | 0.257 | > 30.2 | > 30.2 | 10.7 | 5.75 | > 0.513 | > 0.513 |
